What was measured:
[1] = Stability in Simulated Gastric Fluid (SGF); type: in vitro ADME; design: key: % parent compound remaining relative to 0-minute sample
Summary of the method: (§1)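 Percent parent compound remaining, by LC-MS/MS against the 0-minute sample, is reported after incubation at 2 μg/mL (final) in pepsin-containing SGF at pH 1.2 or pancreatin-containing SIF at pH 6.8. Incubations run at 37° C for up to 60 minutes.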

[2] = Caco-2 Permeability Assay; type: in vitro ADME, human; conditions: human
Source text: The compounds of the invention may be tested for biological activity as MPO inhibitors by methods known to those skilled in the art. In addition, methods such as, for example, a Caco-2 assay, may be used to test the bioavailability of the compounds of the invention. A description of a Caco-2 permeability assay is as follows:
• The Caco-2 monolayer is widely used across the pharmaceutical industry as an in vitro model of the human small intestinal mucosa to predict the absorption of orally administered drugs.^1-4 • The Caco-2 cell model mimics processes such as transcellular transport, paracellular transport, and some aspects of efflux and active transport. • Readout: Papp (A→B), Papp (B→A), Efflux ratio, % Recovery • Controls: with and without Pgp inhibitor; Atenolol, Propanolol, Taxel-1
The Caco-2 cells are cultured to confluency, trypsinized and seeded onto a filter transwell insert at a density of ^˜32,000 cells/well in DMEM cell culture medium. Cells are grown in a humidified atmosphere of 5% CO2 at 37° C. Following an overnight attachment period (24 h after seeding), the cell medium is replaced with fresh medium in both the apical and basolateral compartments every other day. The cell monolayers are used for transport studies 21 days post seeding after measuring the TEER values ([…]). The apical sides and basolateral sides are washed consecutively with HBSS 2.5% (v/v), HEPES (pH 7.4) or HBSS 2.5% (v/v), HEPES 10% (v/v), and Fetal Bovine Serum (pH 7.4) at 37° C. in an incubator under an atmosphere of 5% CO2.
Donor working solution is prepared by dilution of DMSO stock of test article or positive control with transport media to 10 μM.
For A→B directional transport, the donor working solution (with test article or positive control, with or without Pgp inhibitor) is added to the apical (A) compartment and the transport media as receiver working solution is added to the basolateral (B) compartment. For B→A directional transport, the donor working solution (with positive control or test article, with or without Pgp inhibitor) is added to the basolateral (B) compartment and transport media as receiver working solution is added to the apical (A) compartment.
The cells are incubated in a humidified atmosphere of 5% CO2 at 37° C. for 90 minutes.
At the end of the incubation, samples are taken from both donor and receiver compartments and transferred into 96-well assay plates containing internal standard solution (IS) in each well. After centrifugation, the supernatant solutions are transferred to clean 96 well plates and analyzed by LC-MS/MS. The MS detection is performed using a Sciex API 4000 instrument. Each compound is analyzed by reversed phase HPLC.
The parameters Papp (apparent permeability) and efflux ratio are calculated as follows:
Papp=(dQ/dt)×(1/C0)×(1/A)
Efflux ratio=Papp[B→A]/Papp[A→B]
where dQ/dt is the permeability rate, C0 is the initial concentration in the donor compartment, and A is the surface area of the cell monolayer (0.33 cm^2). The Papp value is a rate measured in cm/s. Calculated Papp is ranked as low (<[…]), moderate (1-10×10^−6 cm/s), and high (>[…]).
Comparing the efflux ratios generated in the presence and absence of a Pgp inhibitor identifies whether the test article is a Pgp substrate.
Recovery is calculated as follows:
% Recovery=(Total compound mass in donor and receiver compartments at the end of the incubation/Initial compound mass in the donor compartment)×100.

[3] = Plasma Stability; type: in vitro ADME, human
Summary of the method: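 Compounds incubated at 1 μM in fresh human plasma for 1 hour at 37° C, then protein-precipitated with acetonitrile/formic acid containing internal standard. Remaining parent measured by LC-MS/MS in triplicate, expressed as percent of control remaining.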

[4] = Stability in Simulated Intestinal Fluid (SIF); type: in vitro ADME; design: key: % parent compound remaining relative to 0-minute sample
Summary of the method: as §1

[5] = % remaining at 1 h in simulated gastric fluid
[6] = Caco-2, pH 7.4, Caco-2 monolayer
[7] = % remaining at 1 h in human plasma
[8] = % remaining at 1 h in simulated intestinal fluid

## CC(C)OCCn1c(=S)[nH]c(=O)c2c1ccn2COC(=O)CCCCNC(=O)[C@H](Cc1c[nH]c2ccccc12)NC(=O)OC(C)(C)C.O=C(O)C(F)(F)F [Example 47]
[1]; [5]
  SGF: 99% remaining
[2]; [6]
  Papp at 90 min, 10 µM: 9.15 ×10⁻⁶ cm/s
[3]; [7]
  human Plasma stability: 78% remaining
[4]; [8]
  SIF: 46% remaining

## CC(C)OCCn1c(=S)[nH]c(=O)c2c1ccn2COC(=O)CCNC(=O)[C@H](Cc1c[nH]c2ccccc12)NC(=O)OC(C)(C)C.O=C(O)C(F)(F)F [Example 48]
[1]; [5]
  SGF: 90% remaining
[2]; [6]
  Papp at 90 min, 10 µM: 5.93 ×10⁻⁶ cm/s
[3]; [7]
  human Plasma stability: 74% remaining
[4]; [8]
  SIF: 89% remaining

## CC(C)OCCn1c(=S)[nH]c(=O)c2c1ccn2COC(=O)CCCCNC(=O)[C@@H](N)Cc1ccc(O)cc1.O=C(O)C(F)(F)F [Example 49]
[1]; [5]
  SGF: 99% remaining
[2]; [6]
  Papp at 90 min, 10 µM: 0.154 ×10⁻⁶ cm/s
[3]; [7]
  human Plasma stability: 1% remaining
[4]; [8]
  SIF: 92% remaining

## CC(C)OCCn1c(=S)[nH]c(=O)c2c1ccn2COC(=O)CCNC(=O)[C@@H](N)Cc1ccc(O)cc1.O=C(O)C(F)(F)F [Example 50]
[1]; [5]
  SGF: 99% remaining
[2]; [6]
  Papp at 90 min, 10 µM: 0.215 ×10⁻⁶ cm/s
[3]; [7]
  human Plasma stability: 25% remaining
[4]; [8]
  SIF: 75% remaining

## CC(C)OCCn1c(=S)[nH]c(=O)c2c1ccn2COC(=O)CCCCNC(=O)[C@@H](N)Cc1c[nH]c2ccccc12.O=C(O)C(F)(F)F [Example 51]
[1]; [5]
  SGF: 94% remaining
[2]; [6]
  Papp at 90 min, 10 µM: 0.519 ×10⁻⁶ cm/s
[3]; [7]
  human Plasma stability: 2% remaining
[4]; [8]
  SIF: 83% remaining

## CC(C)OCCn1c(=S)[nH]c(=O)c2c1ccn2COC(=O)CCNC(=O)[C@@H](N)Cc1c[nH]c2ccccc12.O=C(O)C(F)(F)F [Example 52]
[1]; [5]
  SGF: 95% remaining
[2]; [6]
  Papp at 90 min, 10 µM: 0.23 ×10⁻⁶ cm/s
[3]; [7]
  human Plasma stability: 61% remaining
[4]; [8]
  SIF: 81% remaining

## CC(C)OCCn1c(=S)[nH]c(=O)c2c1ccn2COC(=O)CCCCNC(=O)CN(C)C(=O)OC(C)(C)C.O=C(O)C(F)(F)F [Example 53]
[1]; [5]
  SGF: 92% remaining
[2]; [6]
  Papp at 90 min, 10 µM: 3.43 ×10⁻⁶ cm/s
[3]; [7]
  human Plasma stability: 0% remaining
[4]; [8]
  SIF: 98% remaining

## CC(C)OCCn1c(=S)[nH]c(=O)c2c1ccn2COC(=O)CCNC(=O)CN(C)C(=O)OC(C)(C)C.O=C(O)C(F)(F)F [Example 54]
[1]; [5]
  SGF: 93% remaining
[2]; [6]
  Papp at 90 min, 10 µM: 3.14 ×10⁻⁶ cm/s
[3]; [7]
  human Plasma stability: 74% remaining
[4]; [8]
  SIF: 87% remaining

## CNCC(=O)NCCCCC(=O)OCn1ccc2c1c(=O)[nH]c(=S)n2CCOC(C)C.O=C(O)C(F)(F)F [Example 55]
[1]; [5]
  SGF: 100%
[2]; [6]
  Papp at 90 min, 10 µM: 0.244 ×10⁻⁶ cm/s
[3]; [7]
  human Plasma stability: 1% remaining
[4]; [8]
  SIF: 98% remaining

## CNCC(=O)NCCC(=O)OCn1ccc2c1c(=O)[nH]c(=S)n2CCOC(C)C.O=C(O)C(F)(F)F [Example 56]
[1]; [5]
  SGF: 64% remaining
[2]; [6]
  Papp at 90 min, 10 µM: 0.144 ×10⁻⁶ cm/s
[3]; [7]
  human Plasma stability: 0% remaining
[4]; [8]
  SIF: 1% remaining

## CC(C)OCCn1c(=S)[nH]c(=O)c2c1ccn2COC(=O)CCCCNC(=O)CN(C)C(=O)CNC(=O)OC(C)(C)C.O=C(O)C(F)(F)F [Example 57]
[1]; [5]
  SGF: 81% remaining
[2]; [6]
  Papp at 90 min, 10 µM: 0.28 ×10⁻⁶ cm/s
[3]; [7]
  human Plasma stability: 0% remaining
[4]; [8]
  SIF: 96% remaining

## CC(C)OCCn1c(=S)[nH]c(=O)c2c1ccn2COC(=O)CCNC(=O)CN(C)C(=O)CNC(=O)OC(C)(C)C.O=C(O)C(F)(F)F [Example 58]
[1]; [5]
  SGF: 77% remaining
[2]; [6]
  Papp at 90 min, 10 µM: 0.287 ×10⁻⁶ cm/s
[3]; [7]
  human Plasma stability: 49% remaining
[4]; [8]
  SIF: 84% remaining

## CC(C)OCCn1c(=S)[nH]c(=O)c2c1ccn2COC(=O)CCCCNC(=O)CN(C)C(=O)CN.O=C(O)C(F)(F)F [Example 59]
[1]; [5]
  SGF: 95% remaining
[2]; [6]
  Papp at 90 min, 10 µM: < 0.254 ×10⁻⁶ cm/s
[3]; [7]
  human Plasma stability: 11% remaining
[4]; [8]
  SIF: 98% remaining

## COC(=O)N1CCCC1C(=O)NCCC(=O)OCn1ccc2c1c(=O)[nH]c(=S)n2CCOC(C)C.O=C(O)C(F)(F)F (centres unmarked) [Example 60]
[1]; [5]
  SGF: 99% remaining
[2]; [6]
  Papp at 90 min, 10 µM: 0.611 ×10⁻⁶ cm/s
[3]; [7]
  human Plasma stability: 37% remaining
[4]; [8]
  SIF: 88% remaining

## COC(=O)N1CCCC1C(=O)NCCCCC(=O)OCn1ccc2c1c(=O)[nH]c(=S)n2CCOC(C)C.O=C(O)C(F)(F)F (centres unmarked) [Example 61]
[1]; [5]
  SGF: 98% remaining
[2]; [6]
  Papp at 90 min, 10 µM: 0.971 ×10⁻⁶ cm/s
[3]; [7]
  human Plasma stability: 0% remaining
[4]; [8]
  SIF: 92% remaining

## CC(C)OCCn1c(=S)[nH]c(=O)c2c1ccn2COC(=O)CCNC(=O)[C@@H]1CCCN1C(N)=O.O=C(O)C(F)(F)F [Example 62]
[1]; [5]
  SGF: 99% remaining
[2]; [6]
  Papp at 90 min, 10 µM: 0.162 ×10⁻⁶ cm/s
[3]; [7]
  human Plasma stability: 91% remaining
[4]; [8]
  SIF: 99% remaining

## CC(C)OCCn1c(=S)[nH]c(=O)c2c1ccn2COC(=O)CCCCNC(=O)[C@@H]1CCC(=O)N1C.O=C(O)C(F)(F)F [Example 63]
[1]; [5]
  SGF: 97% remaining
[2]; [6]
  Papp at 90 min, 10 µM: 0.2 ×10⁻⁶ cm/s
[3]; [7]
  human Plasma stability: 0% remaining
[4]; [8]
  SIF: 98% remaining

## CC(C)OCCn1c(=S)[nH]c(=O)c2c1ccn2COC(=O)CCNC(=O)[C@@H]1CCC(=O)N1C.O=C(O)C(F)(F)F [Example 64]
[1]; [5]
  SGF: 98% remaining
[2]; [6]
  Papp at 90 min, 10 µM: < 0.19 ×10⁻⁶ cm/s
[3]; [7]
  human Plasma stability: 76% remaining
[4]; [8]
  SIF: 97% remaining

## CCOC(=O)N1CCCC1C(=O)NCCCCC(=O)OCn1ccc2c1c(=O)[nH]c(=S)n2CCOC(C)C.O=C(O)C(F)(F)F (centres unmarked) [Example 65]
[1]; [5]
  SGF: 87% remaining
[2]; [6]
  Papp at 90 min, 10 µM: 1.86 ×10⁻⁶ cm/s
[3]; [7]
  human Plasma stability: 20% remaining
[4]; [8]
  SIF: 89% remaining

## CCOC(=O)N1CCCC1C(=O)NCCC(=O)OCn1ccc2c1c(=O)[nH]c(=S)n2CCOC(C)C.O=C(O)C(F)(F)F (centres unmarked) [Example 66]
[1]; [5]
  SGF: 96% remaining
[2]; [6]
  Papp at 90 min, 10 µM: 0.736 ×10⁻⁶ cm/s
[3]; [7]
  human Plasma stability: 75% remaining
[4]; [8]
  SIF: 80% remaining

## CC(C)OCCn1c(=S)[nH]c(=O)c2c1ccn2COC(=O)CCCCNC(=O)C1CCCN1C(=O)OC(C)C.O=C(O)C(F)(F)F (centres unmarked) [Example 67]
[1]; [5]
  SGF: 92% remaining
[2]; [6]
  Papp at 90 min, 10 µM: 2.84 ×10⁻⁶ cm/s
[3]; [7]
  human Plasma stability: 57% remaining
[4]; [8]
  SIF: 93% remaining

## CC(C)OCCn1c(=S)[nH]c(=O)c2c1ccn2COC(=O)CCNC(=O)C1CCCN1C(=O)OC(C)C.O=C(O)C(F)(F)F (centres unmarked) [Example 68]
[1]; [5]
  SGF: 76% remaining
[2]; [6]
  Papp at 90 min, 10 µM: 2.26 ×10⁻⁶ cm/s
[3]; [7]
  human Plasma stability: 100%
[4]; [8]
  SIF: 69% remaining

## CC(C)OCCn1c(=S)n(COCC[Si](C)(C)C)c(=O)c2[nH]ccc21 [Example 70, 1-[2-(Propan-2-yloxy)ethyl]-2-sulfanylidene-3-{[2-(trimethylsilyl)ethoxy]methyl}-1H,2H,3H,4H,5H-pyrrolo[3,2-d]pyrimidin-4-one]
[1]; % remaining at 1 h, SGF with pepsin pH 1.2, 2 μg/mL, 37° C.
  SGF: 96%
[2]; Caco-2, pH 7.4, no unit printed at the place (tables the 9th table and the 10th table have no head)
  Papp at 90 min, 10 µM: 23.2 ×10⁻⁶ cm/s
[3]; % remaining at 1 h, human plasma, 1 μM, 37° C.
  human Plasma stability: 99%
[4]; % remaining at 1 h, SIF with pancreatin pH 6.8, 2 μg/mL, 37° C.
  SIF: 99%

Reference: patent publication US20240067651A1 (Biohaven Therapeutics Ltd., priority 2019, published 2024)
